Assay results as given in patent US20240358692A1, “TREATMENT OF SCLERODERMA” (Aisa Pharma, Inc., priority 2023, published 2024).

System: participants with SSc-RP
Assay: SHAQ - Visual Analog Scale - Intestinal Problems
Format: in vivo, human
Parameters: Visual Analog Scale-Intestinal Problems, In Clinic Visit (Day 12), Mean / Visual Analog Scale-Intestinal Problems, In Clinic Visit (Day 12), Median / Visual Analog Scale-Intestinal Problems, Change from Baseline, Mean / Visual Analog Scale-Intestinal Problems, Change from Baseline, Median / SHAQ Visual Analogue Scale - Intestinal Problems, In-Clinic Visit (Day 12), Median: scale not given here
From the text: The standard, validated, patient reported outcome measures tool for SSc patients, the Scleroderma Health Assessment Questionnaire (SHAQ), will be used to assess the participant qualify of life. Details are attached in the Appendix. The participant quality of life will be scored, and a disability index calculated for each questionnaire completed by the patient at Screening and each in-clinic visit. The absolute change in participant quality of life from baseline to the end of each dosing period will be calculated similar to frequency data as before.
The standard, validated, patient reported outcome measures tool for SSc patients, the SHAQ, was collected at the time points specified in the study schedules (FIG. 2 and FIGS. 4A and 4B) to assess the participant's quality of life. The SHAQ included a Raynaud's VAS that will also be reported separately.

[1] = Pooled Cilnidipine (N = 8), Day 12, PP Population, Part A
[2] = pooled Cilnidipine 10 mg and Cilnidipine 10 mg + Tadalafil 5 mg
[3] = pooled Cilnidipine 20 mg and Cilnidipine 20 mg + Tadalafil 5 mg
[4] = pooled cilnidipine 10 mg and 20 mg arms (combination: + tadalafil 5 mg)

SMILES: COCCOC(=O)C1=C(C)NC(C)=C(C(=O)OC/C=C/c2ccccc2)C1c1cccc([N+](=O)[O-])c1 (stereo not drawn) [Cilnidipine]
- SHAQ Visual Analogue Scale - Intestinal Problems, In-Clinic Visit (Day 12), Median (Pooled Cilnidipine 10 mg and Cilnidipine 10 mg + Tadalafil 5 mg (N = 9), Day 12, PP Population, Part A): 0.700
- SHAQ Visual Analogue Scale - Intestinal Problems, In-Clinic Visit (Day 12), Median (Pooled Cilnidipine 20 mg and Cilnidipine 20 mg + Tadalafil 5 mg (N = 8), Day 12, PP Population, Part A): 0.100
- SHAQ Visual Analogue Scale - Intestinal Problems, Change from Baseline, Mean (SD) [1]: −0.863 (1.8110)
- SHAQ Visual Analogue Scale - Intestinal Problems, In-Clinic Visit (Day 12), Mean (SD) [1]: 0.975 (1.3781)
- SHAQ Visual Analogue Scale - Intestinal Problems, Percent Change from Baseline, Mean (SD) [1]: −43.69 (64.404) %
- % Δ from baseline, Intestinal Problems mean (Pooled cilnidipine (n=5)): −32.4%
- VAS Intestinal Problems Change from Baseline Max [2]: 1.00
- VAS Intestinal Problems Change from Baseline Mean [2]: −1.228
- VAS Intestinal Problems Change from Baseline Median [2]: −0.250
- VAS Intestinal Problems Change from Baseline Min [2]: −4.40,
- VAS Intestinal Problems Change from Baseline Q1 [2]: −3.000,
- VAS Intestinal Problems Change from Baseline Q3 [2]: 0.000
- VAS Intestinal Problems Day 12 Max [2]: 3.80
- VAS Intestinal Problems Day 12 Median [2]: 0.700
- VAS Intestinal Problems Day 12 Min [2]: 0.00,
- VAS Intestinal Problems Day 12 Q1 [2]: 0.000,
- VAS Intestinal Problems Day 12 Q3 [2]: 1.900
- VAS Intestinal Problems Percent Change from Baseline Max [2]: 142.9%
- VAS Intestinal Problems Percent Change from Baseline Mean [2]: −27.93%
- VAS Intestinal Problems Percent Change from Baseline Min [2]: −100.0, %
- VAS Intestinal Problems Percent Change from Baseline Q1 [2]: −94.00, %
- VAS Intestinal Problems Percent Change from Baseline Q3 [2]: 15.00%
- VAS Intestinal Problems Change from Baseline Max [3]: 2.90
- VAS Intestinal Problems Change from Baseline Median [3]: 0.000
- VAS Intestinal Problems Change from Baseline Min [3]: −1.60,
- VAS Intestinal Problems Change from Baseline Q1 [3]: −0.300,
- VAS Intestinal Problems Change from Baseline Q3 [3]: 0.600
- VAS Intestinal Problems Day 12 Max [3]: 4.50
- VAS Intestinal Problems Day 12 Median [3]: 0.200
- VAS Intestinal Problems Day 12 Min [3]: 0.00,
- VAS Intestinal Problems Day 12 Q1 [3]: 0.000,
- VAS Intestinal Problems Day 12 Q3 [3]: 2.100
- VAS Intestinal Problems Percent Change from Baseline Max [3]: 181.3%
- VAS Intestinal Problems Percent Change from Baseline Median [3]: 30.00%
- VAS Intestinal Problems Percent Change from Baseline Min [3]: −100.0, %
- VAS Intestinal Problems Percent Change from Baseline Q1 [3]: −88.89, %
- VAS Intestinal Problems Percent Change from Baseline Q3 [3]: 40.00%
- VAS Intestinal Problems Change from Baseline Max [4]: 0.60
- VAS Intestinal Problems Change from Baseline Median [4]: 0.000
- VAS Intestinal Problems Change from Baseline Min [4]: −4.40,
- VAS Intestinal Problems Change from Baseline Q1 [4]: −3.000,
- VAS Intestinal Problems Change from Baseline Q3 [4]: 0.300
- VAS Intestinal Problems Day 12 Max [4]: 3.80
- VAS Intestinal Problems Day 12 Median [4]: 0.600
- VAS Intestinal Problems Day 12 Min [4]: 0.00,
- VAS Intestinal Problems Day 12 Q1 [4]: 0.000,
- VAS Intestinal Problems Day 12 Q3 [4]: 2.100
- VAS Intestinal Problems Percent Change from Baseline Max [4]: 40.0%
- VAS Intestinal Problems Percent Change from Baseline Min [4]: −100.0, %
- VAS Intestinal Problems Percent Change from Baseline Q1 [4]: −88.00, %
- VAS Intestinal Problems Percent Change from Baseline Q3 [4]: 30.00%
